Series [1] deals with T1, human adenosine A1 receptor (Homo sapiens, UniProt P30542).
T1 construct: expressed in transfected cells; host or cells: Chinese hamster ovary (CHO) cells containing CRE/SPAP/HYG reporter elements
T1 sequence (P30542 1-326): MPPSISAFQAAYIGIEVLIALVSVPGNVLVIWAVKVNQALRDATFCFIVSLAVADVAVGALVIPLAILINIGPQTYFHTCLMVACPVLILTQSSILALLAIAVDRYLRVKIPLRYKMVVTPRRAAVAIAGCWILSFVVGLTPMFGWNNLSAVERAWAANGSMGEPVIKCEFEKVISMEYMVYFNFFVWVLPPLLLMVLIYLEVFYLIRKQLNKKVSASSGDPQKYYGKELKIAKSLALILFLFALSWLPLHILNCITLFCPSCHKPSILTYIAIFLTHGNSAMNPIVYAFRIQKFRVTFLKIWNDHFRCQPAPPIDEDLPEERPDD
Put plainly: Reporter gene (CRE/SPAP) agonist assay in CHO cells, adenosine A1 receptor. Type of series: cell-based. The following applies: CHO cells with human A1 receptor; inhibition of forskolin-stimulated SPAP production; potency relative to NECA=1. The method, then:
Agonist activity was measured in Chinese hamster ovary (CHO) cells containing the CRE/SPAP/HYG (CRE=cyclic AMP response element; HYG=hygromycin resistance; SPAP=secreted placental alkaline phosphatase) reporter gene elements, which upon stimulation of cAMP levels produced SPAP. A cell line was used, which was stably transfected with either the human adenosine A1 receptor or the human adenosine A3 receptor in addition to the above elements. Cells were plated out in 96-well plates in culture medium and incubated at 37° C. for 1 hour. […] All cells were then incubated for a further 5 hours at 37° C., and cooled to room temperature, after which a substrate for the phosphatase (para-nitrophenol phosphate, pNPP), which is converted by SPAP to a coloured reagent) was then added and the 96-well plates were read in a plate reader. From these readings, the concentration-dependence of the inhibition by the agonist for forskolin-stimulated SPAP production can be calculated.
(ECR=equipotent concentration ratio relative to NECA=1)
On the technique in general: A reporter such as luciferase makes a cellular process visible.

For series [2], the target named is T2, human adenosine A3 receptor (Homo sapiens, UniProt P0DMS8).
T2 sequence (P0DMS8 1-318): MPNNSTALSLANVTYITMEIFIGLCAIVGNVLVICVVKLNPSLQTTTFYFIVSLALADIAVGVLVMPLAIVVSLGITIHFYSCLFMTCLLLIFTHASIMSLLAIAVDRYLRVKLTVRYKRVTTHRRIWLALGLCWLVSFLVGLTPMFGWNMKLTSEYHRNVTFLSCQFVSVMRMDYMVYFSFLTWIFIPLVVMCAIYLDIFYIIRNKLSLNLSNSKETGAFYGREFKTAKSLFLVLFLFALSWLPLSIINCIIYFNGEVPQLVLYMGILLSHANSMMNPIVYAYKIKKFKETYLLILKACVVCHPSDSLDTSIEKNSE
Put plainly: Reporter gene (CRE/SPAP) agonist assay in CHO cells, adenosine A3 receptor. To be noted: CHO cells with human A3 receptor; inhibition of forskolin-stimulated SPAP production; potency relative to NECA=1.

Regarding `O[C@@H]1[C@H](O)[C@@H](COC(F)(F)F)O[C@H]1n1cnc2c(NCCc3ccncc3)ncnc21` [Example 2, N-(2-Pyridin-4-yl-ethyl)-5′-O-trifluoromethyladenosine], in series [1], the “A1 ECR (equipotent concentration ratio relative to NECA=1)” value is reported as 185.5. As to `CC(=O)NCCNc1ncnc2c1ncn2[C@@H]1O[C@H](COC(F)(F)F)[C@@H](O)[C@H]1O` [Example 23, N-{2-[9-(3R,4S-Dihydroxy-5R-trifluoromethoxymethyl-tetrahydro-furan-2R-yl)-9H-purin-6-ylamino]-ethyl}-acetamide], the “A3 ECR (equipotent concentration ratio relative to NECA=1)” value in series [2] is more than 175. Also, in series [1], the “A1 ECR (equipotent concentration ratio relative to NECA=1)” value was 12.52.

With `O=S1(=O)CCC(Nc2ncnc3c2ncn3[C@@H]2O[C@H](COC(F)(F)F)[C@@H](O)[C@H]2O)CC1` [Example 16, N-(1,1-Dioxo-hexahydro-1δ6-thiopyran-4-yl)-5′-O-trifluoromethyl-adenosine], the “A3 ECR (equipotent concentration ratio relative to NECA=1)” value in series [2] was more than 207. Moreover, in series [1], the “A1 ECR (equipotent concentration ratio relative to NECA=1)” value is recorded as 79.50. Regarding `OCC(O)CNc1ncnc2c1ncn2[C@@H]1O[C@H](COC(F)(F)F)[C@@H](O)[C@H]1O` (relative stereo) [Example 20, N-(rel-2,3-Dihydroxy-propyl)-5′-O-trifiuoromethyl-adenosine], the “A3 ECR (equipotent concentration ratio relative to NECA=1)” value in series [2] stood at 284.5. In addition, the “A1 ECR (equipotent concentration ratio relative to NECA=1)” value in series [1] is reported as 24.10.

On to `O[C@@H]1[C@H](O)[C@@H](COC(F)(F)F)O[C@H]1n1cnc2c(NC3CCSCC3)ncnc21` [Example 13, N-(Tetrahydro-thiopyran-4-yl)-5′-O-trifluoromethyl-adenosine], for which the “A3 ECR (equipotent concentration ratio relative to NECA=1)” value in series [2] was more than 276. In addition, in series [1], the “A1 ECR (equipotent concentration ratio relative to NECA=1)” value was 11.1. For `CNS(=O)(=O)CCNc1ncnc2c1ncn2[C@@H]1O[C@H](COC(F)(F)F)[C@@H](O)[C@H]1O` [Example 5, 2-[9-(3R,4S-Dihydroxy-5R-trifluoromethoxymethyl-tetrahydro-furan-2R-yl)-9H-purin-6-ylamino]-ethanesulfonic Acid Methylamide], in that order: more than 212 and 33.2. With `O[C@@H]1[C@H](O)[C@@H](COC(F)(F)F)O[C@H]1n1cnc2c(NC3CC4CCC3C4)ncnc21` (stereo partly drawn) [Example 3, N-(exo-Bicyclo[2.2.1]hept-2-yl)-5′-O-trifluoromethyl-adenosine], the “A3 ECR (equipotent concentration ratio relative to NECA=1)” value in series [2] was found to be 143.5. As for `O[C@@H]1[C@H](O)[C@@H](COC(F)(F)F)O[C@H]1n1cnc2c(Nc3cccc(F)c3)ncnc21` [Example 15, N-(3-Fluoro-phenyl)-5′-O-trifluoromethyl-adenosine], the “A1 ECR (equipotent concentration ratio relative to NECA=1)” value in series [1] came to 23.2.

As usually defined, the melting point is the temperature of the solid-liquid transition. For `O[C@@H]1[C@H](O)[C@@H](COCC(F)(F)F)O[C@H]1n1cnc2c(NC3CCCC3)ncnc21` [Example 6, N-Cyclopentyl-5′-O-(2,2,2-trifluoro-ethyl)-adenosine], the melting point is 74 to 76 °C. The “A3 ECR (equipotent concentration ratio relative to NECA=1)” value in series [2] stood at 7.7. Further, in series [1], the “A1 ECR (equipotent concentration ratio relative to NECA=1)” value is given as 8.70. Regarding `O[C@@H]1[C@H](O)[C@@H](COC(F)(F)F)O[C@H]1n1cnc2c(N[C@H]3CCC[C@@H]3F)ncnc21` [Example 12, N-(2S-Fluoro-cyclopent-(S)-yl)-5′-O-trifluoromethyl-adenosine], the “A3 ECR (equipotent concentration ratio relative to NECA=1)” value in series [2] was more than 226. On the same count and under the same terms, the figure for `O[C@@H]1[C@H](O)[C@@H](COC(F)(F)F)O[C@H]1n1cnc2c(N[C@H]3CCOC3)ncnc21` [Example 22, N-(Tetrahydro-furan-3S-yl)-5′-O-trifluoromethyl-adenosine] is more than 63. For the molecule `CCOC(=O)N1CCC(Nc2nc(C)nc3c2ncn3[C@@H]2O[C@H](COC(F)(F)F)[C@@H](O)[C@H]2O)CC1` [Example 24, 4-[9-(3R,4S-Dihydroxy-5R-trifluoromethoxymethyl-tetrahydro-furan-2R-yl)-2-methyl-9H-purin-6-ylamino]-piperidine-1-carboxylic Acid Ethyl Ester], in series [2], the “A3 ECR (equipotent concentration ratio relative to NECA=1)” value is given as more than 134. Also, in series [1], the “A1 ECR (equipotent concentration ratio relative to NECA=1)” value was 51.70. For `O[C@@H]1[C@H](O)[C@@H](COC(F)(F)F)O[C@H]1n1cnc2c(Nc3ccc(F)c(F)c3)ncnc21` [Example 14, N-(3,4-Difluoro-phenyl)-5′-O-trifluoromethyl-adenosine], in that order: 197.3 and 20.50.

For the molecule `O[C@@H]1[C@H](O)[C@@H](COCC(F)(F)F)O[C@H]1n1cnc2c(N[C@@H]3CCC[C@H]3O)ncnc21` [Example 8, N-(2R-Hydroxy-cyclopent-(R)-yl)-5′-O-(2,2,2-trifluoro-ethyl)-adenosine], in series [1], the “A1 ECR (equipotent concentration ratio relative to NECA=1)” value worked out at 239.40.

Consider `Cc1nc(NC2CCOCC2)c2ncn([C@@H]3O[C@H](COC(F)(F)F)[C@@H](O)[C@H]3O)c2n1` [Example 25, 2-Methyl N-(tetrahydro-pyran-4-yl)-5′-O-trifluoromethyl-adenosine], for which, in series [1], the “A1 ECR (equipotent concentration ratio relative to NECA=1)” value is given as 32.

As to `O[C@@H]1[C@H](O)[C@@H](COCC(F)(F)F)O[C@H]1n1cnc2c(Nc3ccc(F)cc3)ncnc21` [Example 9, N-(4-Fluoro-phenyl)-5′-O-(2,2,2-trifluoro-ethyl)-adenosine], the “A3 ECR (equipotent concentration ratio relative to NECA=1)” value in series [2] amounted to 19.7. For the same molecule, the “A1 ECR (equipotent concentration ratio relative to NECA=1)” value in series [1] is 298.

For `CC(C)(C)Nc1ncnc2c1ncn2[C@@H]1O[C@H](COC(F)(F)F)[C@@H](O)[C@H]1O` [Example 17, N-tert-Butyl-5′-O-trifiuoromethyl-adenosine], the “A3 ECR (equipotent concentration ratio relative to NECA=1)” value in series [2] is reported as more than 207. On to `Nc1ncnc2c1ncn2[C@@H]1O[C@H](COC(F)(F)F)[C@@H](O)[C@H]1O` [Example 4, 5′-O-Trifluoromethyladenosine], for which, in series [2], the “A3 ECR (equipotent concentration ratio relative to NECA=1)” value is reported as 81.6. Further, the “A1 ECR (equipotent concentration ratio relative to NECA=1)” value in series [1] turned out to be 80.7. For `CCOC(=O)N1CCC(Nc2ncnc3c2ncn3[C@@H]2O[C@H](COC(F)(F)F)[C@@H](O)[C@H]2O)CC1` [Example 18, 4-[9-(3R,4S-Dihydroxy-5R-trifluoromethoxymethyl-tetrahydro-furan-2R-yl)-9H-purin-6-ylamino]-piperidine-1-carboxylic Acid Ethyl Ester], in that order: more than 202 and 5.32.

`O[C@@H]1[C@H](O)[C@@H](COC(F)(F)F)O[C@H]1n1cnc2c(NC3CCOCC3)ncnc21` [Example 1, N-(Tetrahydro-pyran-4-yl)-5′-O-trifluoromethyladenosine]: the “A3 ECR (equipotent concentration ratio relative to NECA=1)” value in series [2] is on record as more than 129. For the same molecule, the “A1 ECR (equipotent concentration ratio relative to NECA=1)” value in series [1] is 8.40. Regarding `O[C@@H]1[C@H](O)[C@@H](COC(F)(F)F)O[C@H]1n1cnc2c(N[C@H]3CCC[C@@H]3O)ncnc21` [Example 19, N-(2S-Hydroxy-cyclopent-(S)-yl)-5′-O-trifluoromethyl-adenosine], the “A3 ECR (equipotent concentration ratio relative to NECA=1)” value in series [2] was more than 150. On the same count and under the same terms, then `O[C@@H]1[C@H](O)[C@@H](COC(F)(F)F)O[C@H]1n1cnc2c(N[C@@H]3CCOC3)ncnc21` [Example 21, N-(Tetrahydro-furan-3R-yl)-5′-O-trifluoromethyl-adenosine], with more than 175.

The record behind these values is US6407076B1, “Adenosine analogues and related method of treatment” (SmithKline Beecham Corporation, priority 1997, dated 2002).
